The test system of this experiment is corticostriatal synapses on dSPNs. Description: Patch clamp, HFS-LTD at corticostriatal synapses on dSPNs. The format is cell-based, mouse. Particulars: peptide 50 μM intracellularly, mean, RB5 n = 7 cells, Scr n = 5 cells. As for the experimental part: Brain slices containing both the striatum and the cortex were prepared as described (Trusel et al, [2015]). Mice were anesthetized by isoflurane and decapitated, and their brains were rapidly transferred to ice‐cold dissecting aCSF containing (in mM): 110 Choline‐Cl, 2.5 KCl, 1.25 NaH2PO4, 7 MgCl26H2O, 0.5 CaCl2, 25 NaHCO3, 25 D‐glucose, 11.6 ascorbic acid, saturated with 95% O2 and 5% CO2. Horizontal corticostriatal slices (270 μm thick; patch‐clamp recordings) were cut in the dissecting aCSF using a Vibratome 1000S slicer (Leica, Italy), then transferred to normal aCSF containing (in mM): 115 NaCl, 3.5 KCl, 1.2 NaH2PO4, 1.3 MgCl26H2O, 2 CaCl2, 25 NaHCO3, and 25 D‐glucose and aerated with 95% O2 and 5% CO2. Following 20 min of incubation at 32°C, slices were kept at RT. During experiments, slices were continuously perfused with aCFS at a rate of 2 ml/min at 28°C. […]
SPNs were clamped at a holding membrane potential of −80 mV. […] Series resistance (range 15–25 MW) was monitored at regular intervals throughout the recording and presented minimal variations (≤20%) in the analyzed cells. […]
The occurrence and magnitude of synaptic plasticity was evaluated by comparing the normalized EPSP amplitudes from the last 5 min of baseline recordings with the corresponding values at 20–30 min after HFS (HFS‐LTD). […]
(In patch-clamp work, channel activity is measured electrically.)

For “SCR: ineffective Scramble version of RB5 containing a TAT sequence (GRKKRRQRRRPPRVGPGVPEGVGVAVFGVKEPGQTGDVGPVGE) [reference compound]”, the “Normalized EPSP amplitude after HFS (20–30 min) versus baseline” value is 76.7653 (listed as Scr) and “had no effect on plasticity induction” (listed as control peptide).

(Values after paper PMC10630888, “Nuclear ERK1/2 signaling potentiation enhances neuroprotection and cognition via Importinα1/KPNA2” (EMBO Molecular Medicine, 2023).)
